Conditions: 283.15 K, Liquid, Vibrating tube method

CCCCCCCCCC [decane]
Conditions | mass density [kg/m3]
3625 kPa | 740.1
3634 kPa | 740.1
3651 kPa | 740.3
3666 kPa | 740.1
3675 kPa | 740.1
3689 kPa | 740
3701 kPa | 740.1
3713 kPa | 740.1
3724 kPa | 740.1
3735 kPa | 740.2
3748 kPa | 740.2
3759 kPa | 740
3774 kPa | 740.2
3789 kPa | 740.1
3800 kPa | 740.1
3899 kPa | 740.2
3917 kPa | 740.3
3930 kPa | 740.1
3945 kPa | 740.3
3957 kPa | 740.3
3968 kPa | 740.3
3982 kPa | 740.4
3992 kPa | 740.4
4007 kPa | 740.4
4017 kPa | 740.3
4031 kPa | 740.3
4042 kPa | 740.3
4055 kPa | 740.3
4085 kPa | 740.4
4096 kPa | 740.2
4114 kPa | 740.5
4129 kPa | 740.3
4147 kPa | 740.4
4160 kPa | 740.5
4179 kPa | 740.5
4197 kPa | 740.4
4212 kPa | 740.5
4229 kPa | 740.4
4247 kPa | 740.5
4263 kPa | 740.4
4277 kPa | 740.5
4292 kPa | 740.5
4306 kPa | 740.6
4321 kPa | 740.4
4333 kPa | 740.6
4349 kPa | 740.5
4362 kPa | 740.6
4394 kPa | 740.6
4410 kPa | 740.5
4424 kPa | 740.5
4437 kPa | 740.5
4455 kPa | 740.7
4468 kPa | 740.6
4484 kPa | 740.7
4499 kPa | 740.7
4514 kPa | 740.7
4533 kPa | 740.6
4549 kPa | 740.8
4565 kPa | 740.7
4579 kPa | 740.7
4603 kPa | 740.8
4628 kPa | 740.7
4648 kPa | 740.8
4667 kPa | 740.7
4770 kPa | 740.8
4791 kPa | 740.9
4811 kPa | 740.9
4835 kPa | 740.9
5291 kPa | 741.2
5334 kPa | 741.3
5356 kPa | 741.3
5377 kPa | 741.3
5399 kPa | 741.3
5421 kPa | 741.4
5444 kPa | 741.4
5463 kPa | 741.4
5486 kPa | 741.3
5505 kPa | 741.3
5529 kPa | 741.5
5549 kPa | 741.4
5573 kPa | 741.5
5624 kPa | 741.5
5644 kPa | 741.5
5662 kPa | 741.5
5674 kPa | 741.4
5686 kPa | 741.6
5700 kPa | 741.6
5719 kPa | 741.6
5736 kPa | 741.5
5778 kPa | 741.6
5790 kPa | 741.5
5806 kPa | 741.6
5819 kPa | 741.7
5838 kPa | 741.6
5851 kPa | 741.6
5852 kPa | 741.7
5870 kPa | 741.7
5887 kPa | 741.7
5909 kPa | 741.6
5920 kPa | 741.7
5926 kPa | 741.7
5930 kPa | 741.8
5942 kPa | 741.8
5960 kPa | 741.7
5977 kPa | 741.8
5991 kPa | 741.8
6008 kPa | 741.7
6025 kPa | 741.8
6043 kPa | 741.7
6063 kPa | 741.7
6081 kPa | 741.8
6102 kPa | 741.8
6122 kPa | 741.9
6142 kPa | 741.8
6161 kPa | 741.9
6626 kPa | 742.2
6649 kPa | 742.2
6666 kPa | 742.3
6683 kPa | 742.2
6712 kPa | 742.2
6729 kPa | 742.3
6755 kPa | 742.2
6775 kPa | 742.3
6805 kPa | 742.3
6826 kPa | 742.4
6843 kPa | 742.2
6861 kPa | 742.4
6877 kPa | 742.3
6905 kPa | 742.4
6933 kPa | 742.4
6948 kPa | 742.3
6967 kPa | 742.4
6996 kPa | 742.4
7021 kPa | 742.3
7041 kPa | 742.4
7058 kPa | 742.5
7077 kPa | 742.5
